Data on eleven compounds can be found in patent US10220026B2, “Micelle containing epirubicin-complexed block copolymer and anti-cancer agent, and pharmaceutical composition containing said micelle applicable to treatment of cancer, resistant cancer or metastatic cancer” (priority 2014, dated 2019).

Data set [1] in a line: Incorporation of compounds in micelles of epirubicin-conjugated block copolymer (HPLC, DLS). The conditions noted are these: for detection of the compound in micelles formed by epirubicin-conjugated block copolymer: micelles produced by the method of Example 1. In kind it is physicochemical. As for the experimental part:
The mixed solution was applied to a rotary evaporator (N-1200AV (Elyra)) followed by evaporating the methanol. After having evaporated the methanol, HEPES buffer (10 mM, pH 7.4, 50 ml) was added to the flask followed by carrying out sonication for 30 minutes (Bioruptor, Cosmo Bio Co., Ltd., Japan). Subsequently, the solution was passed through a polyethersulfone (PES) filter (0.22 μm) (Millipore Corp.). The solution was further purified by subjecting to five rounds of ultrafiltration (molecular weight cutoff: 30,000 Da) (Centricon Plus-20, Millipore Corp.) for 15 minutes (while adding 5 ml of HEPES buffer (10 mM, pH 7.4) for each round of ultrafiltration) followed by concentrating to 15 ml. Finally, the solution was passed through a PES filter (0.22 μm).

The subject of data set [2] is cisplatin-resistant human lung cancer H460-luc cells. Nature of the data set: In vivo anti-cancer activity in orthotopic lung cancer model (survival). The conditions noted are these: female nude mice, intravenous, epirubicin equivalent 6 mg/kg, Days 4, 11, 18, 25, 32. The protocol: Luciferase-expressing lung cancer H460-luc cells (JCRB) were cultured for 3 months in medium containing 1 μg/ml of cisplatin to acquire a cisplatin-resistant strain. 2×10^6 cells of the cisplatin-resistant strain H460-luc (containing 10% Matrigel (Becton Dickinson) were implanted into the left lower lobe of the lungs of female nude mice in accordance with the method described in Fushiki, et al., Cancer Sci., 2009 August, 100(8). Four days after implant, the drugs indicated in the following table were diluted to their prescribed dosages with physiological saline for injection (Otsuka Pharmaceutical Co., Ltd.) and administered into the caudal vein (on Days 4, 11, 18, 25 and 32).
HEPES solution was administered instead of a drug for use as a negative control. […] D-luciferin (Summit Pharmaceuticals International Corp.) was administered intraperitoneally and luminescence intensity of the luciferase was measured twice a week using an IVIS Imaging System (Summit Pharmaceuticals International Corp.) (FIG. 8A). Survival curves were verified according to the Kaplan-Meier method using Prism software and the presence of significant differences was tested using the log-rank test.

In data set [3] the test system is epirubicin-resistant human mesothelioma cells (MSTO-211H-luc). Kind of data set: In vivo anti-cancer activity in orthotopic mesothelioma model (survival). The conditions noted are these: female nude mice, intravenous, epirubicin equivalent 6 mg/kg, Days 5-63. As for the experimental part:
Human mesothelioma MSTO-211H was transfected with luciferase based on the method described in Mol. Ther., 2012 April, 20(4), 769-777 to obtain a luciferase-expressing strain (MSTO-211H-luc). MSTO-211H-luc cells were cultured for 3 months in medium containing 0.2 μg/ml of epirubicin to produce epirubicin-resistant human mesothelioma cells (MSTO-211H-luc). 1×10^6 of the epirubicin-resistant MSTO-211H-luc cells were administered into the thoracic cavity of female nude mice to produce an orthotopic implant model. Five days after administration, drugs at the dosages shown in the following table were diluted with physiological saline for injection (Otsuka Pharmaceutical Co., Ltd.) and administered into the caudal vein (on Days 5, 9, 13, 23, 33, 43, 53 and 63).
HEPES solution was administered instead of a drug for use as a negative control. […] D-luciferin (Summit Pharmaceuticals International Corp.) was administered intraperitoneally, and body weights of the mice were measured simultaneous to measuring luminescence intensity of the luciferase twice a week using an IVIS Imaging System (Summit Pharmaceuticals International Corp.) (FIGS. 6A to 6C). […] Significant differences as determined with a log-rank test were observed between the negative control and Epi (P=0.016), between Epi and Epi Micelle (P=0.0001) and between Epi Micelle and STS+Epi Micelle (P=0.0012).

Data set [4] deals with Epirubicin-resistant breast cancer cells (MCF-7). Nature of the data set: Elimination of epirubicin and eFluxx-ID-GFP by resistant strain (confocal microscopy), breast cancer. It counts as cell-based, human. The conditions noted are these: epirubicin-resistant strain; concentrations of Table 6. As for the experimental part: (§1) Epirubicin-resistant breast cancer cells (MCF-7) and cisplatin-resistant lung cancer cells (H460) were respectively disseminated in each of the wells of an 8-well Tek chambered cover glass (Thermo Fisher Scientific K.K.) at 1×10^4 cells/well followed by culturing overnight. The medium was then replaced with 200 μl of RPMI1640 (phenol red-free) containing 0.1 μg/ml of Hoechst 33342 and 10% FBS.
(§2) 200 μl of eFluxx-ID-GFP solution were added 1 hour after addition of drug. The medium was replaced with RPMI1640 medium containing 10% FBS 30 minutes after addition followed by observation with an LSM780 confocal microscope and taking photographs thereof (FIGS. 12B and 13B). Cells subjected to the procedure prior to acquiring resistance were used as a control and epirubicin was added for the drug. In this experiment, fluorescence-labeled epirubicin (manufacturer) was used for the epirubicin.

The subject of data set [5] is mouse kidney cancer-derived cells (Renca). Kind of data set: In vivo anti-cancer activity in orthotopic kidney cancer model (survival, lung metastasis, CD105). The note with it: Balb/c mice, intravenous, epirubicin equivalent 6 mg/kg, Days 4, 11, 18.
Procedure: 2×10^4 mouse kidney cancer-derived cells (Renca) (50 μl, containing 10% Matrigel) were administered into the renal capsules of Balb/c mice using the method described in Dinney, C. […] Four days after administering into the kidney, the drugs indicated in the following table were diluted to their prescribed dosages with physiological saline for injection (Otsuka Pharmaceutical Co., Ltd.) and administered into the caudal vein (on Days 4, 11 and 18).
HEPES solution was administered instead of a drug for use as a negative control. […] The days in which the animals died were recorded, and survival curves were verified according to the Kaplan-Meier method using Prism software and the presence of significant differences was tested using the log-rank test.
Sixty days later, the diameters of tumors that had metastasized to the lung were measured by 3DμCT (R-mCT2m, Rigaku Corp., Japan) for the experimental animals, or in the case an animal had died, the radius was measured directly following autopsy followed by determination of tumor volume (using the equation 4/3×π×r^3). […] Moreover, the number of cells expressing the stem cell marker, CD105, was measured by flow cytometry.
Data set [6] has as its system cisplatin-resistant lung cancer cells (H460). Nature of the data set: Elimination of epirubicin and eFluxx-ID-GFP by resistant strain (confocal microscopy), lung cancer. In kind it is cell-based, human. The conditions noted are these: concentrations of Table 6. The protocol: as §1, §2
For data set [7], the system named is MSTO-211H mesothelioma cells. Kind of data set: Aldefluor assay (FACS) on cancer stem cells in mesothelioma. The note with it: 1 μM cisplatin, 0.01 μM pemetrexed, 0.001 μM staurosporine, 0.01 μM UCN-1; 72 hours or 24 hours. In kind it is cell-based, human.
Data set [8] concerns A549 cells highly expressing MRP. Kind of data set: eFluxx-ID Green Multidrug Resistance Assay (drug elimination activity, MAF), MRP. The note with it: 30 μM. In kind it is cell-based. As for the experimental part:
(§3) More specifically, after detaching each of the cultured cells by incubating in trypsin-EDTA solution, the cells were washed with medium to obtain cell suspensions having a concentration of 1×10^4 cells/ml. […] 125 μl of eFluxx-ID-GFP solution were added 1 hour after addition of drug at the concentration directed in the kit. Following addition, the cell suspensions were incubated for 30 minutes at 37° C. followed by the addition of DAPI at a final concentration of 0.5 μg/ml and analyzing with a flow cytometer (BD LSR II, BD Biosciences). MAF values shown in the figures refer to the multidrug resistance activity factor (MAF) calculated from the mean fluorescence intensity of flow cytometry, and a high value for MAF indicates a greater inhibitory effect on ABC transporters. The calculation formulas were as indicated below: MAFMDR-1=100×(FMDR-1−F0)/FMDR-1 MAFMRP=100×(FMRP−F0)/FMRP NAFBCRP=100×(FBCRP−F0)/FBCRP [Equation 4] (wherein, F represents the mean flow cytometry value during addition of inhibitor, and F0 represents the mean flow cytometry value when inhibitor is not added).

For data set [9], the system named is Mesothelioma cell line MSTO-211H cells. Nature of the data set: Effect of micelle incorporation during addition of hAGP, Cell Counting Kit-8 cell survival. In kind it is cell-based, human. The conditions noted are these: hAGP 0.5 mg/ml; STS 0.02 μg/ml, epirubicin 0.1 μg/ml.
Procedure: Anti-cancer activity was measured according to the method indicated below using the Cell Counting Kit-8 (Dojindo, Japan). Mesothelioma cell line MSTO-211H cells were disseminated at 1×10^3 cells/well to 3×10^3 cells/well and cultured. The medium was replaced on the following day followed by the addition of 50 μl of medium. […] 72 hours later, 10 μl of Cell Counting Kit-8 were added followed by measuring optical absorbance at 450 nm 1 hour later with a microplate reader (Model 680, BioRad, Hercules, Calif.). […] Cell survival rate (%)=[(As−Ab)/(Ac−Ab)×100 [Equation 2]
In the equation, As indicates the optical absorbance of the specimen (wells containing cells, test substance and Cell Counting Kit solution), Ac indicates the optical absorbance of a negative control (wells containing only cells and Cell Counting Kit solution) (absence of test substance), and Ab indicates the optical absorbance of a blank (cell-free wells containing only medium and Cell Counting Kit solution).
The test system of data set [10] is epirubicin-resistant mesothelioma cells (MSTO-211H EPI-R). Nature of the data set: eFluxx-ID Green Multidrug Resistance Assay (drug elimination activity, MAF), mesothelioma. In kind it is cell-based, human. The conditions noted are these: 30 μM. The protocol: as §3
Data set [11] deals with epirubicin-resistant breast cancer cells (MCF-7 EPI-R). Kind of data set: eFluxx-ID Green Multidrug Resistance Assay (drug elimination activity, MAF), breast cancer. It counts as cell-based, human. The conditions noted are these: 30 μM. As for the experimental part:
as §3

The test system of data set [12] is Hela cells highly expressing BCRP. Kind of data set: eFluxx-ID Green Multidrug Resistance Assay (drug elimination activity, MAF), BCRP. The conditions noted are these: 30 μM. In kind it is cell-based. The protocol:
as §3

For data set [13], the system named is cisplatin-resistant lung cancer cells (H460 Cis-R). Nature of the data set: eFluxx-ID Green Multidrug Resistance Assay (drug elimination activity, MAF), lung cancer. It counts as cell-based, human. The note with it: 30 μM. The protocol:
as §3

Consider `C[C@]12O[C@H](C[C@]1(O)CO)n1c3ccccc3c3c4c(c5c6ccccc6n2c5c31)CNC4=O` [CEP701/lestaurtinib, lestaurtinib], for which the “detection of the compound in micelles formed by epirubicin-conjugated block copolymer” value (from here on “detection of the compound”) in [1] is listed as “able to be detected in the micelles”.

As to `COc1cccc2c1C(=O)c1c(O)c3c(c(O)c1C2=O)C[C@@](O)(C(=O)CO)C[C@@H]3O[C@H]1C[C@H](N)[C@@H](O)[C@H](C)O1` [Epi, epirubicin], in [2], the “survival, significant difference versus negative control (log-rank test P)” value is “not observed”. For the same compound, the “survival, log-rank test P versus negative control” value in data set [3] was found to be 0.016; in data set [5], 0.0001. In addition, the “elimination of epirubicin and eFluxx-ID outside the cells” value in [4] and in data set [6] was “eliminated outside cells” in each case.

Take `CO[C@@H]1[C@H](N(C)C(=O)c2ccccc2)C[C@H]2O[C@]1(C)n1c3ccccc3c3c4c(c5c6ccccc6n2c5c31)C(=O)NC4` [PKC412]: the “detection of the compound” value in data set [1] is on record as “able to be detected in the micelles”.

`CN[C@@H]1C[C@H]2O[C@@](C)([C@@H]1OC)n1c3ccccc3c3c4c(c5c6ccccc6n2c5c31)C(=O)N[C@H]4O` [UCN-01, 7-hydroxystaurosporine]: the “detection of the compound” value in data set [1] is listed as “able to be detected in the micelles”. The “Aldefluor-positive cells (cancer stem cells)” value (from here on “Aldefluor-positive cells”) in data set [7] was “decreased”.

On to `N.N.[Cl][Pt][Cl]` [cisplatin], for which, in data set [7], the “Aldefluor-positive cells” value is “increased”.

`Cn1cc(C2=C(c3cn(C4CCN(Cc5ccccn5)CC4)c4ccccc34)C(=O)NC2=O)c2ccccc21` [enzastaurin]: the “detection of the compound” value in [1] was “unable to be detected in the micelles”.

Consider `Nc1nc2[nH]cc(CCc3ccc(C(=O)N[C@@H](CCC(=O)O)C(=O)O)cc3)c2c(=O)[nH]1` [pemetrexed], for which the “Aldefluor-positive cells” value in data set [7] is “increased”.

As for `COC(=O)[C@H]1[C@H]2C[C@@H]3c4[nH]c5cc(OC)ccc5c4CCN3C[C@H]2C[C@@H](OC(=O)c2cc(OC)c(OC)c(OC)c2)[C@@H]1OC` [reserpine], the “detection of the compound” value in data set [1] is given as “able to be detected in the micelles”.

Regarding `CN[C@@H]1C[C@H]2O[C@@](C)([C@@H]1OC)n1c3ccccc3c3c4c(c5c6ccccc6n2c5c31)C(=O)NC4` [staurosporine], in data set [1] (epirubicin:staurosporine weight ratio of 1:1), the “dispersibility of staurosporine-incorporating epirubicin micelle” value is on record as “dispersibility increased”. Besides, the “polydispersivity of staurosporine-incorporating epirubicin micelle” value in data set [1] (epirubicin:staurosporine weight ratio of 1:2, unsuitable as incorporating micelle) is given as “polydispersivity increased”. In addition, the “incorporation of staurosporine in the epirubicin micelle” value in data set [1] (epirubicin:staurosporine weight ratio of 5:1) was “complete incorporation”. The “detection of the compound” value in data set [1] is given as “able to be detected in the micelles”. The “elimination of drug (eFluxx-ID) from cells” value in data set [8], in data set [10], in data set [11], in data set [12] and in data set [13] was “prevented elimination” in each case. In addition, in [9], the “effect of addition of human α-acid glycoprotein (hAGP) on cell survival rate” value is “significant increase in cell survival rate”. For the same compound, the “Aldefluor-positive cells” value in data set [7] is given as “decreased”.

For `COc1ccc(CCN(C)CCCC(C#N)(c2ccc(OC)c(OC)c2)C(C)C)cc1OC` (stereo not drawn) [verapamil], the “elimination of epirubicin and eFluxx-ID outside the cells” value in data set [4] and in data set [6] was “localized within the cells” in each case.

Consider `CS(=O)(=O)c1ccc(C(=O)Nc2ccc(Cl)c(-c3ccccn3)c2)c(Cl)c1` [vismodegib], for which the “detection of the compound” value in [1] is “unable to be detected in the micelles”.
